Measured values published in patent US20110105565A1, “WATER SOLUBLE SMALL MOLECULE INHIBITORS OF THE CYSTIC FIBROSIS TRANSMEMBRANE CONDUCTANCE REGULATOR” (THE REGENTS OF THE UNIVERSITY OF CALIFORNIA, priority 2008, published 2011).
Like-named read-outs stand apart in the source and are kept apart here.

Target: human wildtype CFTR (Homo sapiens, UniProt P13569)
Assay: Fluorescence cell-based assay of CFTR inhibition (YFP iodide influx, FRT cells)
Design: expressed in transfected cells; host or cells: Fisher rat thyroid (FRT) cells
Details: for CFTR inhibitory activity (in words): structure-activity discussion
[1] = Table 1, upper part, CFTR inhibitory activity, given as ranges, read-out: IC50
[2] = Table 2 summary table, given as ranges, read-out: IC50
[3] = Table 1, lower parts, given as ranges, read-out: IC50
[4] = Tables 1 and 2, read-out: IC50 (CFTR inhibition)

Chain of human wildtype CFTR (P13569 whole entry): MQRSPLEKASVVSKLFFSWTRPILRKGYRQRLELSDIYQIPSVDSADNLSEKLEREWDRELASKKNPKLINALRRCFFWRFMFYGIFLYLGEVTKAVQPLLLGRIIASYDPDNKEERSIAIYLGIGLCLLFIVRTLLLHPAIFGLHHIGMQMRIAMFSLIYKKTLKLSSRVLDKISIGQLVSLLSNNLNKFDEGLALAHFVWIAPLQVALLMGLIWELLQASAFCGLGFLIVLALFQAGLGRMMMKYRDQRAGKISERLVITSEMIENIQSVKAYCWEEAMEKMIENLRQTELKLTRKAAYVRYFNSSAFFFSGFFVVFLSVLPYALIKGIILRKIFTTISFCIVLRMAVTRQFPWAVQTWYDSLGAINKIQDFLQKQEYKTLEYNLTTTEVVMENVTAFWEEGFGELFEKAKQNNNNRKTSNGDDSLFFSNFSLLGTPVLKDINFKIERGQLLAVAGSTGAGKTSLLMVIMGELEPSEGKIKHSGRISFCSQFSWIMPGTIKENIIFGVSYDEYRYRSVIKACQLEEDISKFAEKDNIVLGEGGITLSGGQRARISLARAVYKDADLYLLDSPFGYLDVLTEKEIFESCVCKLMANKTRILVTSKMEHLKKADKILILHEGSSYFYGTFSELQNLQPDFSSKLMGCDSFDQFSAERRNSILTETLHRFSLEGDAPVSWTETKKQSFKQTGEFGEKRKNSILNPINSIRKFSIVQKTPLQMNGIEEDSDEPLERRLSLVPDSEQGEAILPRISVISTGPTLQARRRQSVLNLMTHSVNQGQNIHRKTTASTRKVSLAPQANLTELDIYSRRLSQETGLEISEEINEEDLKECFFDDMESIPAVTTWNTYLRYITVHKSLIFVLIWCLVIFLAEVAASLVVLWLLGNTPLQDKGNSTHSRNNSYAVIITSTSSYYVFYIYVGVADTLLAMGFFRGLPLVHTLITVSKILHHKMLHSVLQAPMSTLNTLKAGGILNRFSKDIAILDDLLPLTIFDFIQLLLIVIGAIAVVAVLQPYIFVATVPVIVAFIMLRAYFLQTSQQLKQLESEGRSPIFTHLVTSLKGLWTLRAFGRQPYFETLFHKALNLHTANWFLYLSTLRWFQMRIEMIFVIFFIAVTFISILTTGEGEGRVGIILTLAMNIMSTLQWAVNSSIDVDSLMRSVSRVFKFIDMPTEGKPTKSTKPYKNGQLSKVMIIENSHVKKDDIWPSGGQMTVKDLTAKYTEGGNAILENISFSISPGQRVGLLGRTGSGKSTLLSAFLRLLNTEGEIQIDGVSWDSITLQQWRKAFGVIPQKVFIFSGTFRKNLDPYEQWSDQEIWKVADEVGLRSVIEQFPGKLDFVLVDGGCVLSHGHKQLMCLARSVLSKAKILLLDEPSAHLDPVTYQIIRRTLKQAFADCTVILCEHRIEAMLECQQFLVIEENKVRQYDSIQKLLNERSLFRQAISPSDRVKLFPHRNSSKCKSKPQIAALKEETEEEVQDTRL

Compound | IC50 [1] | IC50 [2] | IC50 [3] | IC50 [4] | CFTR inhibitory activity (in words)
O=C1/C(=C/c2ccc(S(=O)(=O)[O-])cc2)SC(=S)N1c1cccc(C(F)(F)F)c1.[Na+] [Compound 35, sodium (Z)-4-((4-oxo-2-thioxo-3-(3-(trifluoromethyl)phenyl)thiazolidin-5-ylidene)methyl) benzenesulfonate] | 20 to 30 µM | 20 to 30 µM | – | – | inactive
O=C(O)c1cc(/C=C2\SC(=S)N(c3ccc(C(F)(F)F)cc3)C2=O)ccc1O [Compound 32, (Z)-2-hydroxy-5-((4-oxo-2-thioxo-3-(4-(trifluoromethyl)phenyl)thiazolidin-5-ylidene)methyl)benzoic acid] | 20 to 30 µM | 20 to 30 µM | – | – | –
O=C1/C(=C/c2cc(O)c(O)c(O)c2)SC(=S)N1c1cccc(C(F)(F)F)c1 [Compound 19, (Z)-2-thioxo-3-(3-(trifluoromethyl)phenyl)-5-(3,4,5-trihydroxybenzylidene) thiazolidin-4-one] | 10 to 20 µM | 10 to 20 µM | – | – | low activity
O=C(O)c1ccc(/C=C2\SC(=S)N(c3ccc(C(F)(F)F)cc3)C2=O)cc1 [Compound 25, (Z)-4-((4-oxo-2-thioxo-3-(4-(trifluoromethyl)phenyl)thiazolidin-5-ylidene)methyl)benzoic acid] | 10 to 20 µM | 10 to 20 µM | – | – | –
O=C1/C(=C/c2ccc(O)c(O)c2O)SC(=S)N1c1cccc(C(F)(F)F)c1 [Compound 34, (Z)-2-thioxo-3-(3-(trifluoromethyl)phenyl)-5-(2,3,4-trihydroxybenzylidene) thiazolidin-4-one] | 20 to 30 µM | 20 to 30 µM | – | – | low activity
O=C(O)c1ccc(CC2SC(=S)N(c3cccc(C(F)(F)F)c3)C2=O)cc1 (stereo not shown) [Compound 56] | – | – | – | – | inactive
O=C(O)c1cc(/C=C2\SC(=S)N(c3ccccc3C(F)(F)F)C2=O)ccc1O [Compound 22, (Z)-2-hydroxy-5-((4-oxo-2-thioxo-3-(2-(trifluoromethyl)phenyl)thiazolidin-5-ylidene)methyl)benzoic acid] | 10 to 20 µM | 10 to 20 µM | – | – | –
O=C(O)c1ccc(/C=C2\SC(=S)N(c3ccc(Cl)c(C(F)(F)F)c3)C2=O)cc1 [Compound 24, (Z)-4-((3-(4-chloro-3-(trifluoromethyl)phenyl)-4-oxo-2-thioxothiazolidin-5-ylidene)methyl)benzoic acid] | 10 to 20 µM | 10 to 20 µM | – | – | –
O=C1S/C(=C\c2ccc(-c3nn[nH]n3)cc2)C(=O)N1c1cccc(C(F)(F)F)c1 [Compound 48, (Z)-5-(4-(1H-tetrazol-5-yl)benzylidene)-3-(3-(trifluoromethyl)phenyl) thiazolidine-2,4-dione] | – | 10 to 20 µM | 10 to 20 µM | – | –
O=C(O)COc1cccc(/C=C2\SC(=S)N(c3cccc(C(F)(F)F)c3)C2=O)c1 [Compound 36, (Z)-2-(3-((4-oxo-2-thioxo-3-(3-(trifluoromethyl)phenyl)thiazolidin-5-ylidene)methyl)phenoxy) acetic acid] | 20 to 30 µM | 20 to 30 µM | – | – | –
O=C(O)c1ccc(/C=C2\SC(=S)N(c3cc(C(F)(F)F)cc(C(F)(F)F)c3)C2=O)cc1 [Compound 23, (Z)-4-((3-(3,5-bis(trifluoromethyl)phenyl)-4-oxo-2-thioxothiazolidin-5-ylidene)methyl)benzoic acid] | 10 to 20 µM | 10 to 20 µM | – | – | –
O=C(O)c1cccc(/C=C2\SC(=S)N(c3ccccc3C(F)(F)F)C2=O)c1 [Compound 28, (Z)-3-((4-oxo-2-thioxo-3-(2-(trifluoromethyl)phenyl)thiazolidin-5-ylidene)methyl)benzoic acid] | 10 to 20 µM | 10 to 20 µM | – | – | –
O=C(O)c1ccc(/C=C2\SC(=S)N(c3ccccc3C(F)(F)F)C2=O)cc1 [Compound 20, (Z)-4-((4-oxo-2-thioxo-3-(2-(trifluoromethyl)phenyl)thiazolidin-5-ylidene)methyl)benzoic acid] | 10 to 20 µM | 10 to 20 µM | – | – | –
O=C1/C(=C/c2ccc(O)cc2)SC(=S)N1c1cccc(C(F)(F)F)c1 [Compound 31, (Z)-5-(4-hydroxybenzylidene)-2-thioxo-3-(3-(trifluoromethyl)phenyl) thiazolidin-4-one] | 20 to 30 µM | 20 to 30 µM | – | – | low activity
O=C(O)c1ccccc1/C=C1\SC(=S)N(c2ccccc2C(F)(F)F)C1=O [Compound 27, (Z)-2-((4-oxo-2-thioxo-3-(2-(trifluoromethyl)phenyl)thiazolidin-5-ylidene)methyl)benzoic acid] | 10 to 20 µM | 10 to 20 µM | – | – | –
O=C1/C(=C/c2ccncc2)SC(=S)N1c1cccc(C(F)(F)F)c1 [Compound 33, (Z)-5-(pyridin-4-ylmethylene)-2-thioxo-3-(3-(trifluoromethyl)phenyl) thiazolidin-4-one] | – | 20 to 30 µM | – | 20 to 30 µM | inactive
O=C(O)c1ccccc1/C=C1\SC(=S)N(c2cccc(C(F)(F)F)c2)C1=O [Compound 26, (Z)-2-((4-oxo-2-thioxo-3-(3-(trifluoromethyl)phenyl)thiazolidin-5-ylidene)methyl)benzoic acid] | 10 to 20 µM | 10 to 20 µM | – | – | –

Next, values leading:

IC50 [1] | IC50 [2] | IC50 [3] | IC50 [4] | CFTR inhibitory activity (in words) | Compound
10 to 20 µM | 10 to 20 µM | – | – | – | O=C(O)c1cccc(/C=C2\SC(=S)N(c3ccc(C(F)(F)F)cc3)C2=O)c1 [Compound 21, (Z)-3-((4-oxo-2-thioxo-3-(4-(trifluoromethyl)phenyl)thiazolidin-5-ylidene)methyl)benzoic acid]
– | 5 to 10 µM | 5 to 10 µM | ~7 µM | – | O=C(O)c1ccc(SC2CC(=O)N(c3cccc(C(F)(F)F)c3)C2=O)cc1 (stereo not shown) [Compound 50, 4-(2,5-dioxo-1-(3-(trifluoromethyl)phenyl)pyrrolidin-3-ylthio)benzoic acid]
10 to 20 µM | 10 to 20 µM | – | – | – | O=C(O)c1ccccc1/C=C1\SC(=S)N(c2ccc(C(F)(F)F)cc2)C1=O [Compound 29, (Z)-2-((4-oxo-2-thioxo-3-(4-(trifluoromethyl)phenyl)thiazolidin-5-ylidene)methyl)benzoic acid]
5 to 10 µM | 5 to 10 µM | – | – | – | O=C(O)c1cccc(/C=C2\SC(=S)N(c3ccc(F)c(C(F)(F)F)c3)C2=O)c1 [Compound 11, (Z)-3-((3-(4-fluoro-3-(trifluoromethyl)phenyl)-4-oxo-2-thioxothiazolidin-5-ylidene)methyl)benzoic acid]
1 to 2 µM | 1 to 2 µM | – | – | – | O=C(O)c1cccc(/C=C2\SC(=S)N(c3cccc(C(F)(F)F)c3)C2=O)c1 [Compound 9, (Z)-3-((4-oxo-2-thioxo-3-(3-(trifluoromethyl)phenyl)thiazolidin-5-ylidene)methyl)benzoic acid]
2 to 3 µM | 2 to 3 µM | – | 2.6 µM | – | O=C(O)COc1ccc(/C=C2\SC(=S)N(c3cccc(C(F)(F)F)c3)C2=O)cc1 [Compound 10, (Z)-2-(4-((4-oxo-2-thioxo-3-(3-(trifluoromethyl)phenyl)thiazolidin-5-ylidene)methyl)phenoxy) acetic acid]
1 to 2 µM | 1 to 2 µM | – | – | – | O=C(O)c1cc(/C=C2\SC(=S)N(c3cccc(C(F)(F)F)c3)C2=O)ccc1O [Compound 7, (Z)-2-hydroxy-5-((4-oxo-2-thioxo-3-(3-(trifluoromethyl)phenyl)thiazolidin-5-ylidene)methyl)benzoic acid]
5 to 10 µM | 5 to 10 µM | – | – | modest inhibition activity | O=C1/C(=C/c2cc(Br)c(O)c(Br)c2)SC(=S)N1c1cccc(C(F)(F)F)c1 [Compound 14, (Z)-5-(3,5-dibromo-4-hydroxybenzylidene)-2-thioxo-3-(3-(trifluoromethyl)phenyl) thiazolidin-4-one]
– | 5 to 10 µM | 5 to 10 µM | – | – | O=C(O)c1ccc(NC(=S)C2SC(=S)N(c3cccc(C(F)(F)F)c3)C2=O)cc1 (stereo not shown) [Compound 51, 4-(4-oxo-2-thioxo-3-(3-(trifluoromethyl)phenyl)thiazolidine-5-carbothioamido)benzoic acid]
1 to 2 µM | 1 to 2 µM | – | – | – | O=C(O)c1ccc(/C=C2\SC(=S)N(c3ccc(F)c(C(F)(F)F)c3)C2=O)cc1 [Compound 8, (Z)-4-((3-(4-fluoro-3-(trifluoromethyl)phenyl)-4-oxo-2-thioxothiazolidin-5 ylidene)methyl)benzoic acid]
7 to 9 µM | 7 to 9 µM | – | – | – | O=C(O)c1ccc(/C=C2\SC(=S)N(c3cccc(C(F)(F)F)c3)C2=O)c(O)c1 [Compound 16, (Z)-3-hydroxy-4-((4-oxo-2-thioxo-3-(3-(trifluoromethyl)phenyl)thiazolidin-5-ylidene)methyl)benzoic acid]
5 to 10 µM | 5 to 10 µM | – | – | – | Cc1cccc(N2C(=O)/C(=C/c3ccc(C(=O)O)cc3)SC2=S)c1C [Compound 13, (Z)-4-((3-(2,3-dimethylphenyl)-4-oxo-2-thioxothiazolidin-5-ylidene)methyl)benzoic acid]
5 to 10 µM | 5 to 10 µM | – | – | – | Cc1cccc(N2C(=O)/C(=C/c3ccc(C(=O)O)cc3)SC2=S)c1 [Compound 12, (Z)-4-((4-oxo-2-thioxo-3-m-tolylthiazolidin-5-ylidene)methyl)benzoic acid]
